The source of these data is ChEMBL document CHEMBL4622897, “Synthesis and biological evaluation of backbone-aminated analogues of gramicidin S” (Bioorg Med Chem Lett, 2020).

One data set relates to Klebsiella pneumoniae. Nature of the data set: Antibacterial activity against Klebsiella pneumoniae 1433 assessed as growth inhibition by microbroth dilution assay. It counts as functional. A general note: Broth dilution looks for growth in wells or tubes with falling amounts of substance.
A further data set has as its system Staphylococcus aureus. The experiment in a line: Antibacterial activity against Staphylococcus aureus 635 assessed as growth inhibition by microbroth dilution assay. Type of data set: functional.
Another data set deals with Enterococcus faecium. Nature of the data set: Antibacterial activity against Enterococcus faecium 1450 assessed as growth inhibition by microbroth dilution assay. It counts as functional.
For a further data set, the system named is Acinetobacter baumannii. Nature of the data set: Antibacterial activity against Acinetobacter baumannii 5075 assessed as growth inhibition by microbroth dilution assay. It counts as functional. To be noted: AB5075.
The subject of a further data set is Pseudomonas aeruginosa. Nature of the data set: Antibacterial activity against Pseudomonas aeruginosa 1419 assessed as growth inhibition by microbroth dilution assay. It counts as functional.
The test system of another data set is Enterobacter cloacae. Nature of the data set: Antibacterial activity against Enterobacter cloacae 1454 assessed as growth inhibition by microbroth dilution assay. Type of data set: functional.
The next data set deals with Erythrocyte. Nature of the data set: Hemolytic activity in human RBC assessed as hemolysis at 50 uM. It counts as ADME, cell-based.
Data set [1] can be described thus: Hemolytic activity in human RBC assessed as hemolysis at 50 uM relative to control. It counts as ADME, cell-based, Erythrocyte. To be noted: red blood cells (erythrocytes), read-out: Activity.

Numbered stars: 1 amine (or outer) side, 2 acyl side, 3 side chain; on linkers, the order of the positions; unused ones are H or OH. Square brackets hold non-standard residues; d marks the D form. Peptide text beside a SMILES is read from it. X1 = NN([C@H](Cc1ccccc1)C(=O)[*:2])[*:1]; Orn(Nα-NH2) = NCCC[C@H](NN)C(=O)O; Orn = NCCC[C@H](N)C(=O)O

What is called MIC is the lowest concentration found to suppress growth. As to `CC(C)C[C@@H]1NC(=O)[C@H](CCCN)N(N)C(=O)[C@H](C(C)C)NC(=O)[C@@H]2CCCN2C(=O)[C@@H](Cc2ccccc2)N(N)C(=O)[C@H](CC(C)C)NC(=O)[C@H](CCCN)N(N)C(=O)[C@H](C(C)C)NC(=O)[C@@H]2CCCN2C(=O)[C@@H](Cc2ccccc2)N(N)C1=O` (cyclo(L[X1]PV[Orn(Nα-NH2)]L[X1]PV[Orn(Nα-NH2)])), the MIC in the data set with Klebsiella pneumoniae was more than 50 µM; in the data set with Staphylococcus aureus it was 2 µM; with Enterococcus faecium it was 2 µM; in the data set with Acinetobacter baumannii it was 5 µM; with Pseudomonas aeruginosa, 15 µM; in the data set on Enterobacter cloacae it was more than 50 µM. For the same compound, in the data set on Erythrocyte, the Activity result was “Toxic”.

Take `CC(C)C[C@@H]1NC(=O)[C@H](CCCN)NC(=O)[C@H](C(C)C)NC(=O)[C@@H]2CCCN2C(=O)[C@@H](Cc2ccccc2)N(N)C(=O)[C@H](CC(C)C)NC(=O)[C@H](CCCN)N(N)C(=O)[C@H](C(C)C)NC(=O)[C@@H]2CCCN2C(=O)[C@@H](Cc2ccccc2)N(N)C1=O` (cyclo(L[X1]PV[Orn]L[X1]PV[Orn(Nα-NH2)])): the MIC worked out at 50 µM in the data set on Klebsiella pneumoniae; 3 µM with Staphylococcus aureus; 3 µM in the data set with Enterococcus faecium; 6.5 µM in the data set with Acinetobacter baumannii; 20 µM with Pseudomonas aeruginosa; 35 µM in the data set with Enterobacter cloacae.

`CC(C)C[C@@H]1NC(=O)[C@H](CCCN)NC(=O)[C@H](C(C)C)NC(=O)[C@@H]2CCCN2C(=O)[C@@H](Cc2ccccc2)N(N)C(=O)[C@H](CC(C)C)NC(=O)[C@H](CCCN)NC(=O)[C@H](C(C)C)NC(=O)[C@@H]2CCCN2C(=O)[C@@H](Cc2ccccc2)N(N)C1=O` (cyclo(L[X1]PV[Orn]L[X1]PV[Orn])): the MIC in the data set with Klebsiella pneumoniae is more than 50 µM; in the data set on Staphylococcus aureus, 4 µM; in the data set with Enterococcus faecium, 4 µM; with Acinetobacter baumannii, 12.5 µM; with Pseudomonas aeruginosa, 35 µM; with Enterobacter cloacae, more than 50 µM. In addition, the Activity entry in the data set on Erythrocyte is given as “Toxic”.

For `CC(C)C[C@@H]1NC(=O)[C@H](CCCN)N(N)C(=O)[C@H](C(C)C)NC(=O)[C@@H]2CCCN2C(=O)[C@@H](Cc2ccccc2)N(N)C(=O)[C@H](CC(C)C)NC(=O)[C@H](CCCN)N(N)C(=O)[C@H](C(C)C)NC(=O)[C@@H]2CCCN2C(=O)[C@@H](Cc2ccccc2)NC1=O` (cyclo(L[dF]PV[Orn(Nα-NH2)]L[X1]PV[Orn(Nα-NH2)])), the MIC in the data set on Klebsiella pneumoniae was more than 50 µM; in the data set with Staphylococcus aureus it was 2 µM; in the data set with Enterococcus faecium, 2 µM; in the data set on Acinetobacter baumannii it was 6 µM; in the data set with Pseudomonas aeruginosa it was 12 µM; with Enterobacter cloacae, more than 50 µM.

For the compound `CC(C)C[C@@H]1NC(=O)[C@H](CCCN)NC(=O)[C@H](C(C)C)NC(=O)[C@@H]2CCCN2C(=O)[C@@H](Cc2ccccc2)N(N)C(=O)[C@H](CC(C)C)NC(=O)[C@H](CCCN)N(N)C(=O)[C@H](C(C)C)NC(=O)[C@@H]2CCCN2C(=O)[C@@H](Cc2ccccc2)NC1=O` (cyclo(L[dF]PV[Orn(Nα-NH2)]L[X1]PV[Orn])), the MIC worked out at 45 µM with Klebsiella pneumoniae; 2 µM with Staphylococcus aureus; 3 µM with Enterococcus faecium; 6.5 µM in the data set on Acinetobacter baumannii; 15 µM in the data set on Pseudomonas aeruginosa; 15 µM in the data set with Enterobacter cloacae.

As to `CC(C)C[C@@H]1NC(=O)[C@H](CCCN)N(N)C(=O)[C@H](C(C)C)NC(=O)[C@@H]2CCCN2C(=O)[C@@H](Cc2ccccc2)NC(=O)[C@H](CC(C)C)NC(=O)[C@H](CCCN)N(N)C(=O)[C@H](C(C)C)NC(=O)[C@@H]2CCCN2C(=O)[C@@H](Cc2ccccc2)NC1=O` (cyclo(L[dF]PV[Orn(Nα-NH2)]L[dF]PV[Orn(Nα-NH2)])), the minimal inhibitory concentration (MIC) was 45 µM in the data set on Klebsiella pneumoniae; 2 µM in the data set on Staphylococcus aureus; 2 µM with Enterococcus faecium; 4 µM with Acinetobacter baumannii; 10 µM in the data set on Pseudomonas aeruginosa; 20 µM with Enterobacter cloacae. Further, in data set [1], the hemolysis at 50 µM worked out at 16%.

As for `CC(C)C[C@@H]1NC(=O)[C@H](CCCN)N(N)C(=O)[C@H](C(C)C)NC(=O)[C@@H]2CCCN2C(=O)[C@@H](Cc2ccccc2)N(N)C(=O)[C@H](CC(C)C)NC(=O)[C@H](CCCN)NC(=O)[C@H](C(C)C)NC(=O)[C@@H]2CCCN2C(=O)[C@@H](Cc2ccccc2)NC1=O` (cyclo(L[dF]PV[Orn]L[X1]PV[Orn(Nα-NH2)])), the MIC is 45 µM in the data set with Klebsiella pneumoniae; 2 µM in the data set with Staphylococcus aureus; 3 µM with Enterococcus faecium; 6.5 µM in the data set on Acinetobacter baumannii; 15 µM in the data set on Pseudomonas aeruginosa; 30 µM in the data set with Enterobacter cloacae.

Consider `CC(C)C[C@@H]1NC(=O)[C@H](CCCN)NC(=O)[C@H](C(C)C)NC(=O)[C@@H]2CCCN2C(=O)[C@@H](Cc2ccccc2)N(N)C(=O)[C@H](CC(C)C)NC(=O)[C@H](CCCN)NC(=O)[C@H](C(C)C)NC(=O)[C@@H]2CCCN2C(=O)[C@@H](Cc2ccccc2)NC1=O` (cyclo(L[dF]PV[Orn]L[X1]PV[Orn])), for which the MIC stood at 45 µM in the data set on Klebsiella pneumoniae; 4 µM in the data set with Staphylococcus aureus; 5 µM in the data set with Enterococcus faecium; 6 µM in the data set with Acinetobacter baumannii; 20 µM in the data set on Pseudomonas aeruginosa; 40 µM with Enterobacter cloacae.

`CC(C)C[C@@H]1NC(=O)[C@H](CCCN)NC(=O)[C@H](C(C)C)NC(=O)[C@@H]2CCCN2C(=O)[C@@H](Cc2ccccc2)NC(=O)[C@H](CC(C)C)NC(=O)[C@H](CCCN)N(N)C(=O)[C@H](C(C)C)NC(=O)[C@@H]2CCCN2C(=O)[C@@H](Cc2ccccc2)NC1=O` (cyclo(L[dF]PV[Orn]L[dF]PV[Orn(Nα-NH2)])): the MIC in the data set with Klebsiella pneumoniae came out at 40 µM; in the data set on Staphylococcus aureus, 2 µM; in the data set on Enterococcus faecium it was 3 µM; in the data set with Acinetobacter baumannii, 6.5 µM; in the data set on Pseudomonas aeruginosa, 13 µM; in the data set on Enterobacter cloacae, 30 µM.

As to `CC(C)C[C@@H]1NC(=O)[C@H](CCCN)NC(=O)[C@H](C(C)C)NC(=O)[C@@H]2CCCN2C(=O)[C@@H](Cc2ccccc2)NC(=O)[C@H](CC(C)C)NC(=O)[C@H](CCCN)NC(=O)[C@H](C(C)C)NC(=O)[C@@H]2CCCN2C(=O)[C@@H](Cc2ccccc2)NC1=O` (cyclo(L[dF]PV[Orn]L[dF]PV[Orn])), in data set [1], the hemolysis at 50 µM is 22%.

In the case of `CC(C)C[C@@H]1NC(=O)[C@H](CCCN)NC(=O)[C@H](C(C)C)NC(=O)[C@@H]2CCCN2C(=O)[C@@H](Cc2ccccc2)NC(=O)[C@H](CC(C)C)NC(=O)[C@H](CCCN)NC(=O)[C@H](C(C)C)NC(=O)[C@@H]2CCCN2C(=O)[C@@H](Cc2ccccc2)NC1=O` (cyclo(V[Orn]L[dF]PV[Orn]L[dF]P)), the MIC in the data set with Klebsiella pneumoniae was 40 µM; with Staphylococcus aureus it was 3 µM; in the data set with Enterococcus faecium, 3 µM; with Acinetobacter baumannii it was 6.5 µM; with Pseudomonas aeruginosa, 20 µM; in the data set on Enterobacter cloacae, 35 µM.
